Tested on: Brassica plants comprising mutant AHAS alleles
Assay: Field trial, pre-planting treatment (0, 10, 20, 30 g a.i./ha), two locations in Canada: ERG, EST1, EST2, PPTOX, VIG1, VIG2, VIG3 scores
Format: in vivo, Brassica napus
Details: ratio >1 = positive contribution
Description: Tests were set up and conducted to asses the growth and performance of plants comprising AHAS full knock-out alleles, and to further analyze the correlation between the presence of full knockout and missense AHAS genes in Brassica plants and plant growth and herbicide tolerance of the Brassica plants in the field. To this end, the Brassica plants identified in Example 1 and 2 were backcrossed two times with an elite parent line, and subsequently selfed twice to obtain homozygous plants (BC2S2). Plants were grown as row plots in a split plot design with three replicates (main plots=herbicide treatments, subplots=genotypes) at two locations in Canada. Treatment pre-planting was carried out on the soil about two days before sowing with a dose of 0 (treatment A), 10 (treatment B), 20 (treatment C) or 30 (treatment D) g a.i./ha of thiencarbazone methyl. Herbicide tolerance was measured by scoring for different parameters. The parameter emergence (ERG) was scored at the cotyledon stage on a scale 1-9, where 1 means late emergence and 9 means early emergence. Establishment was scored 14 days after sowing (EST1) and 21 days after sowing (EST2). Scores were from 1 to 9, where 1 is the worst establishment (least plants that emerged), and 9 is the best establishment (most plants emerged). Phytotoxicity (PPTOX) was determined after establishment. Plants were evaluated on a scale of 1 to 9, where 1=completely yellowing, 5=50% of plant is yellow and 9=no yellowing. The vigor scores (see above) were determined at 1-2 leaf stage (VIG1), 7 days after VIG1 (VIG2) and 14 days after VIG1 (VIG3). The average values (Av) and standard deviations (SD) of the scores for the different parameters are represented in Table 7a-g.
Further, the contribution of the knock-out allele to herbicide tolerance conferred by the missense allele was calculated. First, the scores were corrected for a possible effect of the growth per se, independent of herbicide treatment. To this end, the scores for treatments B, C and D were divided by the scores for treatment A for the same genotype and for the same parameter (corrected herbicide tolerance scores). Next, the effect of the knock-out allele to these corrected herbicide tolerance scores obtained by the missense allele was calculated. Therefore, the corrected herbicide tolerance scores for the missense—knock-out allele combination was divided by the corrected herbicide tolerance scores for the missense allele—wild-type combination. In case the knock-out allele has no effect on herbicide tolerance conferred by the missense allele, this ratio should be 1. In case the knock-out allele positively contributes to the herbicide tolerance conferred by the missense allele, this ratio should be higher than 1. The results for the contribution of the knock-out allele to herbicide tolerance conferred by the missense allele as calculated above are shown in table 8.

[1] = Location A, treatment B 10 g a.i./ha pre-planting
[2] = Location A, treatment C 20 g a.i./ha pre-planting
[3] = Location A, treatment D 30 g a.i./ha pre-planting
[4] = Location B, treatment B 10 g a.i./ha pre-planting
[5] = Location B, treatment C 20 g a.i./ha pre-planting
[6] = Location B, treatment D 30 g a.i./ha pre-planting

For `COC(=O)c1csc(C)c1S(=O)(=O)NC(=O)n1nc(OC)n(C)c1=O` [thiencarbazone-methyl, methyl 4-[(4,5-dihydro-3-methoxy-4-methyl-5-oxo-1H-1,2,4-triazol-1-yl)carbonylsulfamoyl]-5-methylthiophene-3-carboxylate], the “relative contribution of HETO112 (AHAS1 KO) to herbicide tolerance conferred by HETO111 (AHAS3 missense): VIG2” value (shortened to “relative contribution of HETO112 … VIG2”) [1] was 1.05, the “relative contribution of HETO112 (AHAS1 KO) to herbicide tolerance conferred by HETO111 (AHAS3 missense): VIG3” value (shortened to “relative contribution of HETO112 … VIG3”) [1] was 1.14 and the “relative contribution of HETO104 (AHAS3 KO) to herbicide tolerance conferred by HETO108 (AHAS1 missense): ERG” value (shortened to “relative contribution of HETO104 … ERG”) [2] was 0.77. The “relative contribution of HETO104 (AHAS3 KO) to herbicide tolerance conferred by HETO108 (AHAS1 missense): EST1” value (from here on “relative contribution of HETO104 … EST1”) [2] was 0.77, the “relative contribution of HETO104 (AHAS3 KO) to herbicide tolerance conferred by HETO108 (AHAS1 missense): EST2” value (from here on “relative contribution of HETO104 … EST2”) [2] was 0.87 and the “relative contribution of HETO104 (AHAS3 KO) to herbicide tolerance conferred by HETO108 (AHAS1 missense): PPTOX” value (from here on “relative contribution of HETO104 … PPTOX”) [2] was 1.03. The “relative contribution of HETO104 (AHAS3 KO) to herbicide tolerance conferred by HETO108 (AHAS1 missense): VIG1” value (shortened to “relative contribution of HETO104 … VIG1”) [2] was 0.88, the “relative contribution of HETO104 (AHAS3 KO) to herbicide tolerance conferred by HETO108 (AHAS1 missense): VIG2” value (shortened to “relative contribution of HETO104 … VIG2”) [2] was 0.90 and the “relative contribution of HETO104 (AHAS3 KO) to herbicide tolerance conferred by HETO108 (AHAS1 missense): VIG3” value (shortened to “relative contribution of HETO104 … VIG3”) [2] was 0.91. The “relative contribution of HETO112 (AHAS1 KO) to herbicide tolerance conferred by HETO111 (AHAS3 missense): ERG” value (shortened to “relative contribution of HETO112 … ERG”) [2] was 1.20, the “relative contribution of HETO112 (AHAS1 KO) to herbicide tolerance conferred by HETO111 (AHAS3 missense): EST1” value (from here on “relative contribution of HETO112 … EST1”) [2] was 1.19 and the “relative contribution of HETO112 (AHAS1 KO) to herbicide tolerance conferred by HETO111 (AHAS3 missense): EST2” value (from here on “relative contribution of HETO112 … EST2”) [2] was 1.19. For the same compound, the “relative contribution of HETO112 (AHAS1 KO) to herbicide tolerance conferred by HETO111 (AHAS3 missense): PPTOX” value (from here on “relative contribution of HETO112 … PPTOX”) [2] was 1.13, the “relative contribution of HETO112 (AHAS1 KO) to herbicide tolerance conferred by HETO111 (AHAS3 missense): VIG1” value (shortened to “relative contribution of HETO112 … VIG1”) [2] was 1.11 and the “relative contribution of HETO112 … VIG2” value [2] was 1.00. For the same compound, the “relative contribution of HETO112 … VIG3” value [2] was 1.05, the “relative contribution of HETO104 … ERG” value [3] was 1.03 and the “relative contribution of HETO104 … EST1” value [3] was 1.03. The “relative contribution of HETO104 … EST2” value [3] was 0.94, the “relative contribution of HETO104 … PPTOX” value [3] was 0.90 and the “relative contribution of HETO104 … VIG1” value [3] was 0.94. For the same compound, the “relative contribution of HETO104 … VIG2” value [3] was 0.89, the “relative contribution of HETO104 … VIG3” value [3] was 0.95 and the “relative contribution of HETO112 … ERG” value [3] was 1.28. The “relative contribution of HETO112 … EST1” value [3] was 1.36, the “relative contribution of HETO112 … EST2” value [3] was 1.18 and the “relative contribution of HETO112 … PPTOX” value [3] was 1.23. The “relative contribution of HETO112 … VIG1” value [3] was 1.18, the “relative contribution of HETO112 … VIG2” value [3] was 1.25 and the “relative contribution of HETO112 … VIG3” value [3] was 1.21. For the same compound, the “relative contribution of HETO104 … ERG” value [4] was 0.92, the “relative contribution of HETO104 … EST1” value [4] was 1.07 and the “relative contribution of HETO104 … EST2” value [4] was 0.95. The “relative contribution of HETO104 … PPTOX” value [4] was 0.78, the “relative contribution of HETO104 … VIG1” value [4] was 0.95 and the “relative contribution of HETO104 … VIG2” value [4] was 1.08. For the same compound, the “relative contribution of HETO104 … VIG3” value [4] was 1.19, the “relative contribution of HETO112 … ERG” value [4] was 0.99 and the “relative contribution of HETO112 … EST1” value [4] was 1.00. For the same compound, the “relative contribution of HETO112 … EST2” value [4] was 1.06, the “relative contribution of HETO112 … PPTOX” value [4] was 0.84 and the “relative contribution of HETO112 … VIG1” value [4] was 0.89. The “relative contribution of HETO112 … VIG2” value [4] was 0.95, the “relative contribution of HETO112 … VIG3” value [4] was 1.04 and the “relative contribution of HETO104 … ERG” value [5] was 1.15. For the same compound, the “relative contribution of HETO104 … EST1” value [5] was 1.07, the “relative contribution of HETO104 … EST2” value [5] was 1.02 and the “relative contribution of HETO104 … PPTOX” value [5] was 1.28. The “relative contribution of HETO104 … VIG1” value [5] was 1.22, the “relative contribution of HETO104 … VIG2” value [5] was 1.15 and the “relative contribution of HETO104 … VIG3” value [5] was 1.25. For the same compound, the “relative contribution of HETO112 … ERG” value [5] was 0.92, the “relative contribution of HETO112 … EST1” value [5] was 1.13 and the “relative contribution of HETO112 … EST2” value [5] was 1.07. For the same compound, the “relative contribution of HETO112 … PPTOX” value [5] was 0.88, the “relative contribution of HETO112 … VIG1” value [5] was 0.93 and the “relative contribution of HETO112 … VIG2” value [5] was 0.94. The “relative contribution of HETO112 … VIG3” value [5] was 0.98, the “relative contribution of HETO104 … ERG” value [6] was 0.93 and the “relative contribution of HETO104 … EST1” value [6] was 1.00.
